According to the NIST ThermoML archive (doi:10.1021/je049609w):

Tests used:
[1] = xn = mol fraction of the nth substance listed; settings: 101 kPa, Liquid
[2] = refractive index (Na D-line) (dimensionless); xn = mol fraction of the nth substance listed; settings: 101 kPa, Liquid

CCOC(=O)CC(=O)OCC [diethyl 1,3-propanedioate] + C1COCCO1
Settings | mass density, 298.15 K [kg/m3] | mass density, 303.15 K [kg/m3] | mass density, 308.15 K [kg/m3] | refractive index, 298.15 K | refractive index, 303.15 K | refractive index, 308.15 K | speed of sound, 298.15 K [m/s] | viscosity, 298.15 K [mPa·s] | viscosity, 303.15 K [mPa·s] | viscosity, 308.15 K [mPa·s]
[1], x2 = 0 | 1049.6 | 1044.2 | 1038.8 | – | – | – | 1304 | 1.941 | 1.755 | 1.602
[1], x2 = 0.1005 | 1048.1 | 1042.8 | 1037.4 | – | – | – | 1308 | 1.858 | 1.698 | 1.537
[1], x2 = 0.1982 | 1046.6 | 1041.2 | 1035.8 | – | – | – | 1312 | 1.777 | 1.626 | 1.476
[1], x2 = 0.2959 | 1044.9 | 1039.6 | 1034.2 | – | – | – | 1316 | 1.7 | 1.556 | 1.413
[1], x2 = 0.3959 | 1043 | 1037.7 | 1032.3 | – | – | – | 1320 | 1.619 | 1.484 | 1.349
[1], x2 = 0.4959 | 1041 | 1035.6 | 1030.2 | – | – | – | 1324 | 1.542 | 1.415 | 1.287
[1], x2 = 0.5951 | 1038.8 | 1033.4 | 1028 | – | – | – | 1328 | 1.465 | 1.346 | 1.227
[1], x2 = 0.6944 | 1036.4 | 1030.9 | 1025.5 | – | – | – | 1332 | 1.391 | 1.28 | 1.17
[1], x2 = 0.796 | 1033.7 | 1028.2 | 1022.8 | – | – | – | 1337 | 1.316 | 1.214 | 1.111
[1], x2 = 0.8977 | 1030.9 | 1025.4 | 1019.9 | – | – | – | 1341 | 1.249 | 1.153 | 1.057
[2], x2 = 0 | – | – | – | 1.4132 | 1.4108 | 1.4085 | – | – | – | –
[2], x2 = 0.1005 | – | – | – | 1.4135 | 1.4113 | 1.409 | – | – | – | –
[2], x2 = 0.1982 | – | – | – | 1.4139 | 1.412 | 1.4093 | – | – | – | –
[2], x2 = 0.2959 | – | – | – | 1.4143 | 1.4123 | 1.4095 | – | – | – | –
[2], x2 = 0.3959 | – | – | – | 1.4147 | 1.4127 | 1.4099 | – | – | – | –
[2], x2 = 0.4959 | – | – | – | 1.415 | 1.4137 | 1.4103 | – | – | – | –
[2], x2 = 0.5951 | – | – | – | 1.4161 | 1.4147 | 1.4113 | – | – | – | –
[2], x2 = 0.6944 | – | – | – | 1.4171 | 1.4157 | 1.4122 | – | – | – | –
[2], x2 = 0.796 | – | – | – | 1.4181 | 1.4167 | 1.4132 | – | – | – | –
[2], x2 = 0.8977 | – | – | – | 1.4192 | 1.4231 | 1.4141 | – | – | – | –

CCOC(C)=O [ethyl acetate] + C1COCCO1
x2 = 0
Settings | mass density, 298.15 K [kg/m3] | mass density, 303.15 K [kg/m3] | mass density, 308.15 K [kg/m3] | refractive index, 298.15 K | refractive index, 303.15 K | refractive index, 308.15 K | speed of sound, 298.15 K [m/s] | viscosity, 298.15 K [mPa·s] | viscosity, 303.15 K [mPa·s] | viscosity, 308.15 K [mPa·s]
[1] | 894.2 | 887.9 | 881.6 | – | – | – | 1155 | 0.438 | 0.414 | 0.392
[2] | – | – | – | 1.3713 | 1.3673 | 1.3631 | – | – | – | –
